Earlier results on one compound are cited in patent US20050136114A1, “Taste masked pharmaceutical compositions comprising bitter drug and pH sensitive polymer” (COUNCIL OF SCIENTIFIC AND INDUSTRIAL RESEARCH, priority 2003, published 2005).

SMILES strings stand for the structures.

For data set [1] the following is noted: oral, humans.
For data set [2] the following is noted: in presence of Eudragit E.

`CO/N=C(\C(=O)N[C@@H]1C(=O)N2C(C(=O)OC(C)OC(C)=O)=C(COC(N)=O)CS[C@H]12)c1ccco1` (some centres unmarked) [cefuroxime axetil]: in data set [1], the bioavailability is given as 32-50%. In addition, the degradation entry in data set [2] is given as “significant degradation”.
